Residue numbers refer to the chain shown, from its start. Like-named read-outs stand apart in the source and are kept apart here.
Columns and labels:
human M1 = target: T1, human M1 (Homo sapiens, UniProt P11229); experiment: M1 PAM assay (FLIPR intracellular calcium), human M1; format: cell-based
T1 construct: expressed in transfected cells; host or cells: CHO cells
T1 sequence (P11229 1-460): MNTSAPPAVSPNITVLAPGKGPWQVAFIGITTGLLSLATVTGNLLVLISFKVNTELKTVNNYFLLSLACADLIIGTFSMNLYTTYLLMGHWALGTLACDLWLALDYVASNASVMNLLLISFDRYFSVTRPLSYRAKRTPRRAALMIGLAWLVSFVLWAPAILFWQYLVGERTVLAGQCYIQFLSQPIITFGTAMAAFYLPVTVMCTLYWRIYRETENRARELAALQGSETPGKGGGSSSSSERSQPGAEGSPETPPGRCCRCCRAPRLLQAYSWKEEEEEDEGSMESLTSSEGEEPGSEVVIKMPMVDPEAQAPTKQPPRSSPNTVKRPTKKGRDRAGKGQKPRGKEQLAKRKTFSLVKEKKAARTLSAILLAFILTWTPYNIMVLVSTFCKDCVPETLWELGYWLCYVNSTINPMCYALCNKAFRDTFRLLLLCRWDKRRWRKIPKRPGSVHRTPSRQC
Method in brief: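 CHO cells expressing M1, Fluo-4AM-loaded, in HEPES/probenecid HBSS pH 7.4, 1% DMSO final. Compounds pre-incubated 2 min for agonist activity versus 30 nM acetylcholine control. For PAM activity, acetylcholine EC20 added after the 2 min pre-incubation, then 2 min more before FLIPR intracellular Ca2+ read.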

ratM1 = target: T2, ratM1 (Rattus norvegicus, UniProt P08482); experiment: M1 PAM assay (FLIPR intracellular calcium), rat M1; format: cell-based
T2 construct: expressed in transfected cells; host or cells: CHO cells (stated generally for the assay, not specifically for rat M1)
T2 sequence (P08482 1-460): T1 sequence (P11229 1-460) with A5V, T254S, P309S, R320K, A337G, I413V

[1] = CHO human M1 cells, FLIPR Ca2+, with EC20 of acetylcholine, first value of the cell, read-out: hM1 EC50
[2] = rat M1, FLIPR Ca2+, second value of the cell, read-out: ratM1 EC50

Structure (SMILES) | EC50 (human M1; [1]) [nM] | EC50 (ratM1; [2]) [nM] | EC50 (human M1) [nM] | EC50 (ratM1) [nM]
Cc1ccc(F)c2c(C(=O)NC3CCOCC3)cn(Cc3ccc(-c4cnn(C)c4)cc3F)c12 [Example 133, 4-fluoro-1-(2-fluoro-4-(1-methyl-1H-pyrazol-4-yl)benzyl)-7-methyl-N-(tetrahydro-2H-pyran-4-yl)-1H-indole-3-carboxamide] | 48 | 84 | – | –
Cn1cc(-c2ccc(Cn3cc(C(=O)NC4CCC4)c4c(F)cccc43)cc2)cn1 [Example 11, N-cyclobutyl-4-fluoro-1-(4-(1-methyl-1H-pyrazol-4-yl)benzyl)-1H-indole-3-carboxamide] | 413 | 618 | – | –
Cn1cc(-c2ccc(Cn3cc(C(=O)N[C@@H]4CCOC[C@H]4O)c4c(F)cccc43)c(F)c2)cn1 (single isomer, unassigned) [Example 70, 4-Fluoro-1-(2-fluoro-4-(1-methyl-1H-pyrazol-4-yl)benzyl)-N-((3S,4R) or (3R,4S)-3-hydroxytetrahydro-2H-pyran-4-yl)-1H-indole-3-carboxamide] | 102 | 284 | – | –
CNC(=O)c1ccc(Cn2cc(C(=O)NC3CCCCC3(F)F)c3c(F)cccc32)cc1 (stereo not shown) [Example 120, N-(2,2-difluorocyclohexyl)-4-fluoro-1-[[4-(methylcarbamoyl)phenyl]methyl]indole-3-carboxamide] | 15 | 32 | – | –
CNC(=O)c1ccc(Cn2cc(C(=O)N[C@H]3CCCC[C@@H]3O)c3c(F)cccc32)c(F)c1 [Example 86, 4-fluoro-1-(2-fluoro-4-(methylcarbamoyl)benzyl)-N-((1S,2S)-2-hydroxycyclohexyl)-1H-indole-3-carboxamide] | 6.91 | 13 | – | –
CNC(=O)c1ccc(Cn2cc(C(=O)NC3CCCCC3F)c3c(F)cccc32)cc1F (stereo not shown) [Example 129, 4-fluoro-1-(3-fluoro-4-(methylcarbamoyl)benzyl)-N-(2-fluorocyclohexyl)-1H-indole-3-carboxamide] | 27 | 66 | – | –
Cn1cc(-c2ccc(Cn3cc(C(=O)N[C@H]4CCCC[C@@H]4O)c4c(F)c(F)c(F)c(F)c43)c(F)c2)cn1 [Example 26, 4,5,6,7-Tetrafluoro-1-(2-fluoro-4-(1-methyl-1H-pyrazol-4-yl)benzyl)-N-((1S,2S)-2-hydroxycyclohexyl)-1H-indole-3-carboxamide] | 80.6 | 201 | – | –
O=C(N[C@H]1CCCC[C@@H]1O)c1cn(Cc2ccc(F)cc2)c2cccc(F)c12 [Example 42, 4-fluoro-1-(4-fluorobenzyl)-N-((1S,2S)-2-hydroxycyclohexyl)-1H-indole-3-carboxamide] | – | – | 110 | 200
O=C(N[C@H]1CCCC[C@@H]1O)c1cn(Cc2ccc(-c3nccs3)cn2)c2cccc(F)c12 [Example 141, 4-fluoro-N-((1S,2S)-2-hydroxycyclohexyl)-1-((5-(thiazol-2-yl)pyridin-2-yl)methyl)-1H-indole-3-carboxamide] | 155 | 453 | – | –
CNC(=O)c1ccc(Cn2cc(C(=O)NC3CCCC(F)(F)C3)c3c(F)cccc32)cc1 (stereo not shown) [Example 118, N-(3,3-difluorocyclohexyl)-4-fluoro-1-[[4-(methylcarbamoyl)phenyl]methyl]indole-3-carboxamide] | 9 | 29 | – | –
Cn1cc(-c2ccc(Cn3cc(CC(=O)N[C@H]4CCOC[C@@H]4O)c4c(F)cccc43)c(F)c2)cn1 [Example 92, 2-[4-Fluoro-1-[[2-fluoro-4-(1-methylpyrazol-4-yl)phenyl]methyl]indol-3-yl]-N-[(3R,4S)-3-hydroxyoxan-4-yl]acetamide] | 35 | 57 | – | –
N#Cc1ccc(Cn2cc(C(=O)N[C@H]3CCCC[C@@H]3O)c3c(F)cccc32)cc1 [Example 32, 1-(4-cyanobenzyl)-4-fluoro-N-((1S,2S)-2-hydroxycyclohexyl)-1H-indole-3-carboxamide] | – | – | 105 | 223
N#Cc1ccc(Cn2cc(C(=O)N[C@H]3CCOC[C@@H]3O)c3c(F)cccc32)cc1 (racemic) [Example 16, 1-(4-cyanobenzyl)-4-fluoro-N-((3RS,4SR)-3-hydroxytetrahydro-2H-pyran-4-yl)-1H-indole-3-carboxamide] | – | – | 237 | 337
O=C(N[C@H]1CCCC[C@@H]1O)c1cn(Cc2ccc(-c3ccn[nH]3)cc2)c2cccc(F)c12 [Example 155, 1-(4-(1H-Pyrazol-5-yl)benzyl)-4-fluoro-N-((1S,2S)-2-hydroxycyclohexyl)-1H-indole-3-carboxamide] | 11 | 5 | – | –
O=C(N[C@H]1CCCC[C@@H]1O)c1cn(Cc2ccc(-c3ncccn3)cc2)c2cccc(F)c12 [Example 135, 4-fluoro-N-((1S,2S)-2-hydroxycyclohexyl)-1-(4-(pyrimidin-2-yl)benzyl)-1H-indole-3-carboxamide] | 97 | 384 | – | –
O=C(N[C@H]1CCCC[C@@H]1O)c1cn(Cc2ccn3ccnc3c2)c2cccc(F)c12 [Example 144, 4-fluoro-N-((1S,2S)-2-hydroxycyclohexyl)-1-(imidazo[1,2-a]pyridin-7-ylmethyl)-1H-indole-3-carboxamide] | – | – | 70 | 172
Cn1cc(-c2ccc(Cn3cc(C(=O)NC4CCCCC4)c4c(F)cccc43)c(F)c2)cn1 [Example 20, N-cyclohexyl-4-fluoro-1-(2-fluoro-4-(1-methyl-1H-pyrazol-4-yl)benzyl)-1H-indole-3-carboxamide] | 204 | 425 | – | –
CNC(=O)c1ccc(Cn2cc(C(=O)NC3CCS(=O)(=O)CC3)c3c(F)cccc32)cc1 [Example 125, N-(1,1-dioxothian-4-yl)-4-fluoro-1-[[4-(methylcarbamoyl)phenyl]methyl]indole-3-carboxamide] | 166 | 623 | – | –
Cn1cc(-c2ccc(Cn3cc(C(=O)N[C@H]4CCCC[C@@H]4O)c4c(F)cccc43)c(F)c2)cn1 [Example 1] | 5.64 | 62.6 | – | –
CNC(=O)c1ccc(Cn2cc(C(=O)NC3CCOCC3)c3c(F)cccc32)cc1F [Example 163, 4-Fluoro-1-(3-fluoro-4-(methylcarbamoyl)benzyl)-N-(tetrahydro-2H-pyran-4-yl)-1H-indole-3-carboxamide] | 59 | 82 | – | –
O=C(N[C@H]1CCCC[C@@H]1O)c1cn(Cc2ccc(-c3ccno3)cc2)c2cccc(F)c12 [Example 138, 4-fluoro-N-((1S,2S)-2-hydroxycyclohexyl)-1-(4-(isoxazol-5-yl)benzyl)-1H-indole-3-carboxamide] | 16 | 38 | – | –
O=C(N[C@H]1CCCC[C@@H]1O)c1cn(Cc2ccc(-c3cccnc3)cc2)c2cccc(F)c12 [Example 159, 4-Fluoro-N-((1S,2S)-2-hydroxycyclohexyl)-1-(4-(pyridin-3-yl)benzyl)-1H-indole-3-carboxamide] | 20 | 47 | – | –
Cn1cc(-c2ccc(Cn3cc(C(=O)N[C@@H]4CCCC(F)(F)[C@H]4O)c4c(F)cccc43)c(F)c2)cn1 [Example 102, N-((1R,2S)-3,3-difluoro-2-hydroxycyclohexyl)-4-fluoro-1-(2-fluoro-4-(1-methyl-1H-pyrazol-4-yl)benzyl)-1H-indole-3-carboxamide] | 29 | 88 | – | –
Cn1cc(-c2ccc(Cn3cc(CC(=O)N[C@H]4CCCC[C@@H]4O)c4c(F)cccc43)c(F)c2)cn1 [Example 93, 2-(4-fluoro-1-(2-fluoro-4-(1-methyl-1H-pyrazol-4-yl)benzyl)-1H-indol-3-yl)-N-((1S,2S)-2-hydroxycyclohexyl)acetamide] | 191 | 1880 | – | –
Cn1cc(-c2ccc(Cn3cc(C(=O)N[C@H]4CCCC[C@@H]4O)c4c(F)cccc43)cc2)cn1 [Example 44, 4-fluoro-N-((1S,2S)-2-hydroxycyclohexyl)-1-(4-(1-methyl-1H-pyrazol-4-yl)benzyl)-1H-indole-3-carboxamide] | 6 | 9.8 | – | –
CO[C@H]1COC[C@@H]1NC(=O)c1cn(Cc2ccc(-c3cnn(C)c3)cc2)c2cccc(F)c12 [Example 8, 4-fluoro-N-[(3S,4R)-4-methoxyoxolan-3-yl]-1-[[4-(1-methylpyrazol-4-yl)phenyl]methyl]indole-3-carboxamide] | 278 | 427 | – | –
